The values that follow come from patent US8877754B2, “Compounds, pharmaceutical compositions and uses thereof” (Boehringer Ingelheim International GmbH, priority 2010, dated 2014).

Usually IC50 stands for the concentration at which inhibition is half-maximal. Read a low IC50 as inhibition by little substance.

T1 sequence (O00763 129-2458 limits assumed): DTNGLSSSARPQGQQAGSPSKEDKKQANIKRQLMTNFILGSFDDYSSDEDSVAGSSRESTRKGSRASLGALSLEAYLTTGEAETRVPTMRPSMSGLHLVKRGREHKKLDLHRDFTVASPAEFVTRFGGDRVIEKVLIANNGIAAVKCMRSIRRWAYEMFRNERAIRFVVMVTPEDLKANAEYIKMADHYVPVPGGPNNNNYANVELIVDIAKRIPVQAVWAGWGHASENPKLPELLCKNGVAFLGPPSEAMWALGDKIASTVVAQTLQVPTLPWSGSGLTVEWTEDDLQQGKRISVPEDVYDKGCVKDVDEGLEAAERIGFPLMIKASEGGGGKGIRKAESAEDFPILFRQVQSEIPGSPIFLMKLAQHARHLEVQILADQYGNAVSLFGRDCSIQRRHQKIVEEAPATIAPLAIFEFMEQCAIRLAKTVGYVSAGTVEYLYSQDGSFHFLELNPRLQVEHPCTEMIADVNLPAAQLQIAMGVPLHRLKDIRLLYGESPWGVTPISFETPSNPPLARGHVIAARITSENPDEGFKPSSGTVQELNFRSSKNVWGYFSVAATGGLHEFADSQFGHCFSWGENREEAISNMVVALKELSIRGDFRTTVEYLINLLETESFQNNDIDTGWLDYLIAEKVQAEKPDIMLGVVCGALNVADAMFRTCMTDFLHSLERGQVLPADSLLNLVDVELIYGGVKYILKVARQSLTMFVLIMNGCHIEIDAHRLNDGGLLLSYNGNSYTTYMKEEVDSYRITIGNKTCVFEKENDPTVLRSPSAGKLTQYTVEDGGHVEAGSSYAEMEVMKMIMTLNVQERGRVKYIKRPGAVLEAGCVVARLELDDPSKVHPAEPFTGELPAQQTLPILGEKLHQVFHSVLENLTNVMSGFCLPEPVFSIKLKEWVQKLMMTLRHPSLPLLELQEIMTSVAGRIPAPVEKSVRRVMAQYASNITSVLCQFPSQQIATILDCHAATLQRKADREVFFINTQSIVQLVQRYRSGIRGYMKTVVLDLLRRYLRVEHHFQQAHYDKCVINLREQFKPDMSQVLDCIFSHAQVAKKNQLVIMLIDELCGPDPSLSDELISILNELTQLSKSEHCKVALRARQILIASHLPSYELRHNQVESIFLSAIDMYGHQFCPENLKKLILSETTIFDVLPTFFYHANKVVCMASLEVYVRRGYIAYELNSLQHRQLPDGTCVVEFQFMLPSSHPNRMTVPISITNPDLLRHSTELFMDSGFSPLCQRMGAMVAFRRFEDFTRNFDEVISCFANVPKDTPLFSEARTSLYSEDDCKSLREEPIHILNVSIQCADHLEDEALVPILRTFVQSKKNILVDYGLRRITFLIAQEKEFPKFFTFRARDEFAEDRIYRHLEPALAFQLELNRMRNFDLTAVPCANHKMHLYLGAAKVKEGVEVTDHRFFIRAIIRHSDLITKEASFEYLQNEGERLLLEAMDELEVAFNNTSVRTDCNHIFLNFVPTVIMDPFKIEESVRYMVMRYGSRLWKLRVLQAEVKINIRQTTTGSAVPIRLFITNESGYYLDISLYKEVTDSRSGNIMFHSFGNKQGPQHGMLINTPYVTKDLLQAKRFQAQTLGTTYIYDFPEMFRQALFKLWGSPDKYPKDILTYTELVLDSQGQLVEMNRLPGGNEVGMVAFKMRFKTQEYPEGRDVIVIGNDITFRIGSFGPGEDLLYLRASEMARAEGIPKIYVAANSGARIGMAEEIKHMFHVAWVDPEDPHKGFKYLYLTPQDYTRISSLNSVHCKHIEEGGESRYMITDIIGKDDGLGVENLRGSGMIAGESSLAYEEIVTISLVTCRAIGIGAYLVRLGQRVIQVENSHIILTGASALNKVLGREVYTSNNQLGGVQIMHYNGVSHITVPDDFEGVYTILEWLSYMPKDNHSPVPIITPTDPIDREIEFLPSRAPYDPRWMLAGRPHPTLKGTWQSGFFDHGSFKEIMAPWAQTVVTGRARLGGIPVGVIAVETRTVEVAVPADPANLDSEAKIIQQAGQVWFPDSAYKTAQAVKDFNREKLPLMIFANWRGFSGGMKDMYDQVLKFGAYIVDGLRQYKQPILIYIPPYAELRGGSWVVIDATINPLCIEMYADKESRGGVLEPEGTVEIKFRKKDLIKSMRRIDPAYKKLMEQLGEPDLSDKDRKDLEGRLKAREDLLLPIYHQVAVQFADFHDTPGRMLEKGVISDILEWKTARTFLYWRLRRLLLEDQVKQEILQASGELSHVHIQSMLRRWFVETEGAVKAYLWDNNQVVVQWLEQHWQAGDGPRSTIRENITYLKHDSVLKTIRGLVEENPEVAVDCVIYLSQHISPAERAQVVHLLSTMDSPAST

This assay concerns the target T1, human ACC2 (Homo sapiens, UniProt O00763).
T1 construct: made in house; host or cells: insect cells, baculoviral expression system
The experiment in a line: ACC2 assay, spectrophotometric 384 well assay (NADH-linked, coupled lactate dehydrogenase/pyruvate kinase). Particulars: hACC2 construct lacking the 128 N-terminal amino acids; 25° C., 340 nm, 15 minutes. Type of assay: biochemical. How it is done: Spectrophotometric 384 Well Assay
Malonyl CoA formation by acetyl CoA carboxylases is stoichometrically linked to the consumption of ATP. ACC2 activity is measured in a NADH-linked kinetic method measuring ADP generated during the ACC reaction using a coupled lactate dehydrogenase/pyruvate kinase reaction.
For biological testing, a human ACC2 construct which lacks the 128 amino acids at the N-terminus for increased solubility (nt 385-6966 in Genbank entry AJ575592) is cloned. The protein is then expressed in insect cells using a baculoviral expression system. Protein purification is performed by anion exchange.
All compounds are dissolved in dimethyl sulfoxide (DMSO) to a concentration of 10 mM.
Assay reactions are then carried out in 384-well plates, with hACC2 in an appropriate dilution and at final assay concentrations (f.c.) of 100 mM Tris (pH 7.5), 10 mM trisodium citrate, 25 mM KHCO3, 10 mM MgCl2, 0.5 mg/mL BSA, 3.75 mM reduced L-glutathione, 15 U/mL lactate dehydrogenase, 0.5 mM phosphoenolpyruvate, 15 U/mL pyruvate kinase, compounds at different concentrations at final DMSO concentrations of 1%.
The enzymatic reaction is then started by addition of a mixture of NADH, acetyl Coenzyme A (both 200 μM f.c.) and ATP (500 uM f.c.). The decrease of the optical density (slope S) is then determined at 25° C. at a wavelength of 340 nm over 15 minutes in a spectrophotometric reader.
Each assay microtiter plate contains wells with vehicle instead of compound as controls for the non-inhibited enzyme (100% CTL; ‘HIGH’) and wells without acetyl-CoA as controls for non-specific NADH degradation (0% CTL; ‘LOW’). The slope S is used for calculation of % CTL=(S(compound)−S(‘LOW’))/(S(‘HIGH’)—S(‘LOW’))*100. Compounds will give values between 100% CTL (no inhibition) and 0% CTL (complete inhibition).
For IC50 value determination, the sample slope in the presence of the test compound after subtraction of the low controls (S(compound)−S(‘LOW’)) are used.
An IC50 value is derived from the compound slopes at different dosages after subtraction of the low controls (S(compound)−S(‘LOW’)) by non-linear regression curve fitting (equation y=(A+((B−A)/(1+((C/x)^D))))).
`CCOc1ccc(C#Cc2ccc(CCC(=O)NC)cc2)cc1` [Example 1.1, 3-[4-(4-Ethoxy-phenylethynyl)-phenyl]-N-methyl-propionamide] had an IC50 of 4.3 µM. In other words, the single-digit micromolar range.
As for `CCOc1ccc(C#Cc2ccc(C(C)C(=O)NC)cc2)cc1` (centres unmarked) [Example 1.3], the figure is 0.22 µM; as for `CCOc1ccc(C#Cc2ccc(C(C)C(=O)N(C)C)cc2)cc1` (centres unmarked) [Example 1.4], 16.1 µM; as for `CCNC(=O)C(C)c1ccc(C#Cc2ccc(OCC)cc2)cc1` (centres unmarked) [Example 1.5], 0.09 µM.
The figure for `CCOc1ccc(C#Cc2ccc(CC(=O)NC)cc2)cc1` [Example 1.6] is 5.4 µM; for `CCCOc1ccc(C#Cc2ccc(C(C)(C)C(=O)NCC)cc2)cc1` [Example 1.8] it is 2.4 µM.
`CCOc1ccc(C#Cc2ccc(C(C)C(N)=O)cc2)cc1` (centres unmarked) [Example 1.9] displayed an IC50 of 0.22 µM.
The figure for `CCOc1ccc(C#Cc2ccc(C(C)C(=O)NCC(N)=O)cc2)cc1` (centres unmarked) [Example 1.10] is 0.53 µM; for `CCOc1ccc(C#Cc2ccc(C(C)C(=O)NCC#N)cc2)cc1` (centres unmarked) [Example 1.11] it is 0.66 µM.
As for `CCOc1ccc(C#Cc2ccc(C(C)C(=O)NCCOC)cc2)cc1` (centres unmarked) [Example 1.12], the figure is 9.7 µM.
Molecule `CCOc1ccc(C#Cc2ccc(C(C)C(=O)NC(C)CC)cc2)cc1` (centres unmarked) [Example 1.13] showed an IC50 of 2.8 µM.
The figure for `CCCOc1ccc(C#Cc2ccc(C(C)(C)C(=O)NC3CC3)cc2)cc1` [Example 1.14] is 0.6 µM; for `CCOc1ccc(C#Cc2ccc(C(C)C(=O)Nc3ccccc3)cc2)cc1` (centres unmarked) [Example 1.15] it is 0.08 µM; for `CCCNC(=O)C(C)c1ccc(C#Cc2ccc(OCC)cc2)cc1` (centres unmarked) [Example 1.16] it is 0.61 µM.
Consider `CCOc1ccc(C#Cc2ccc(C(C)C(=O)NC3CC3)cc2)cc1` (centres unmarked) [Example 1.17], for which the IC50 was determined as 0.12 µM.
In the case of `CCOc1ccc(C#Cc2ccc(C(C)C(=O)NCC(=O)OC)cc2)cc1` (centres unmarked) [Example 1.18], the IC50 was found to be 1.3 µM.
The figure for `CCCOc1ccc(C#Cc2ccc(C(C)(C)C(N)=O)cc2)cc1` [Example 1.19] is 29.2 µM; for `CCOc1ccc(C#Cc2ccc(C(C)C(=O)NC(C)C)cc2)cc1` (centres unmarked) [Example 1.20] it is 13.2 µM; for `CCOc1ccc(C#Cc2ccc(CC(=O)N(C)C)cc2)cc1` [Example 1.21] it is 30 µM.
The figure for `CCNC(=O)Cc1ccc(C#Cc2ccc(OCC)cc2)cc1` [Example 1.22] is 3.6 µM; for `CCOc1ccc(C#Cc2ccc(CC(=O)NC3CC3)cc2)cc1` [Example 1.23] it is 1 µM.
The figure for `CCOc1ccc(C#Cc2ccc(CC(C)C(=O)NC)cc2)cc1` (centres unmarked) [Example 1.24] is 2.7 µM.
As to `CCOc1ccc(C#Cc2ccc(CC(C)C(=O)NC3CC3)cc2)cc1` (centres unmarked) [Example 1.25], half-maximal inhibition (IC50) was put at 0.73 µM.
As for `CCNC(=O)C(C)c1ccc(C#Cc2cnc(NC(C)C)nc2)cc1` (centres unmarked) [Example 2.1, N-Ethyl-2-[4-(2-isopropylamino-pyrimidin-5-ylethynyl)-phenyl]-propionamide], the figure is 0.69 µM; as for `CCNC(=O)C(C)c1ccc(C#Cc2cnc(NC3CCCC3)nc2)cc1` (centres unmarked) [Example 2.3], 0.71 µM; as for `CCNC(=O)C(C)c1ccc(C#Cc2cnc(NC3CC3)nc2)cc1` (centres unmarked) [Example 2.4], 0.39 µM.
As for `CCNC(=O)C(C)c1ccc(C#Cc2cnc(NC(C)CC)nc2)cc1` (centres unmarked) [Example 2.6], the figure is 0.41 µM.
As for `CCNC(=O)C(C)c1ccc(C#Cc2cnc(N3CCC3)nc2)cc1` (centres unmarked) [Example 2.7], the figure is 3.7 µM; as for `CCNC(=O)C(C)c1ccc(C#Cc2cnc(NCCF)nc2)cc1` (centres unmarked) [Example 2.9], 2.5 µM.
On to `CCNC(=O)C(C)c1ccc(C#Cc2cnc(N3CCC4(CC4)C3)nc2)cc1` (centres unmarked) [Example 2.10], for which it took 2.3 µM to reach half-maximal inhibition (IC50).
`CCNC(=O)C(C)c1ccc(C#Cc2cnc(N3CC4CCCC4C3)nc2)cc1` (centres unmarked) [Example 2.11]: the IC50 came out at 0.27 µM.
As for `CCNC(=O)C(C)c1ccc(C#Cc2cnc(NC3CCC3)nc2)cc1` (centres unmarked) [Example 2.12], the figure is 0.69 µM.
